Each block holds one compound with its values, some of them ahead of it.
Assays:
[1] = test system: medulloblastoma cells; assay: DMSO tolerance of medulloblastoma cells in hydrogel-cell constructs, 384-well plate; assay type: cell-based, human
Description: Unless noted otherwise, cell viability assays were performed in 384-well plates using the RealTime-Glo™ MT Cell Viability Assay from Promega. For each experiment two stock solutions were prepared. For the first solution, 50 mM HEPES (pH 7.4) buffer was mixed with 0.5 wt % MAX8 (5 mg MAX8 per mL buffer solution for a final 0.25 wt % MAX8 hydrogel construct). The second solution was a cell solution with 11×10^6 per mL of medulloblastoma cells in serum-free DMEM. The two stock solutions were thoroughly mixed 1:1 to create a cell/gel mixture and 4 μL of the mixture was added per well to a white 384 well assay plate (Corning) containing 41 μL culture medium per well. The cells were allowed to equilibrate for 24 hours before any luminescence was determined. […] The plate was incubated for 60 minutes at 37 C and the luminescence was measured using an Envision Multilevel Reader (Perkin Elmer).
Owing to its unique shear force properties, MAX8-medulloblastoma cell constructs were dispensed at room temperature into 384-well plates (2,000 cells in 4 μL of hydrogel) (Brandtech) with 50 μL of culture medium (DMEM with serum) using a BioTek microplate dispenser. […] 10 μL of the intermediate drug media was then added to the QC plates, and following 48 h of cell culture the cell viability was measured using RealTime-Glo and the previously described method.

[2] = test system: medulloblastoma cells; assay: Treatment of MAX8-RGDS-encapsulated medulloblastoma cells and 2D monolayers with vismodegib, cell viability; assay type: cell-based, human; settings: MAX8-RGDS 3D constructs vs 2D monolayers, 48 hours, FIG. 3B
Description: Vismodegib was added into the surrounding tissue culture medium of MAX8 hydrogel-cell constructs after 24 hours of cell seeding at the indicated concentrations. To limit the exposure of cultured cells to dimethyl sulfoxide (DMSO) from stock solutions of test compounds, 3.5 μL of stock solution was diluted in 1 mL of culture medium and then 20 μL of this solution was added to each well using the Janus workstation (PerkinElmer). Following 48 hours of cell culture the cell viability was measured as previously described using RealTime-Glo with a final concentration of 1×.

[3] = test system: human medulloblastoma cells; assay: RealTime-Glo cell viability of medulloblastoma cells encapsulated in MAX8 hydrogel-cell constructs; assay type: cell-based
Description: (§1) Human medulloblastoma cells were propagated in Dulbecco's […] Media (DMEM) supplemented with 10% fetal bovine serum and penicillin-streptomycin-glutamine at 37° C. and 5% CO2 using standard 2D cell culture protocols and tissue-culture treated plastic cell ware. For isolation of primary cerebellar granule precursor (CGP) cells, the cerebellum was dissected from P4-6 pups of C57BL/6 mice and dissociated into single cells using the Papain Dissociation System kit (Worthington Biochemical Corp, Freehold, N.J.). After filtering through a nylon mesh (70 μm pore size), the cells were briefly centrifuged and resuspended in Neurobasal medium supplemented with […] and B27.
In general and unless otherwise indicated, MAX8-cell constructs were prepared as 0.25 wt % MAX8 hydrogels. First, the peptide was dissolved in 50 mM HEPES buffer (pH 7.4) ([…] of hydrogel) and then an equal volume of single cell suspension in DMEM was added and gently mixed. Mixing the MAX8 solution with the culture medium triggers the intramolecular folding of the peptide, resulting in self-assembly into a hydrogel. For additional hydrogels with different concentrations of MAX8, the amount of peptide was adjusted but otherwise the same hydrogel assembly protocol was followed. The same procedures were followed when functionalized MAX8 was used to prepare hydrogel-cell constructs.
Unless noted otherwise, cell viability assays were performed in 384-well plates using the RealTime-Glo™ MT Cell Viability Assay from Promega. For each experiment two stock solutions were prepared. For the first solution, 50 mM HEPES (pH 7.4) buffer was mixed with 0.5 wt % MAX8 (5 mg MAX8 per mL buffer solution for a final 0.25 wt % MAX8 hydrogel construct). The second solution was a cell solution with 11×10^6 per mL of medulloblastoma cells in serum-free DMEM. The two stock solutions were thoroughly mixed 1:1 to create a cell/gel mixture and 4 μL of the mixture was added per well to a white 384 well assay plate (Corning) containing 41 μL culture medium per well. The cells were allowed to equilibrate for 24 hours before any luminescence was determined. 10× RealTime-Glo was added in 5 μL of media to each well already containing 45 μL to a final concentration of 1×. For cell viability assays in 96-well plates, the following volumes were used. 74 μL of DMEM cell media containing serum was added to each well, 16 μL of the previously mentioned 0.25 wt % MAX8 cell/gel construct was then added to each well. 10 μL of 10× RealTime-Glo was added to the wells for a final concentration of 1×. The plate was incubated for 60 minutes at 37 C and the luminescence was measured using an Envision Multilevel Reader (Perkin Elmer).

[4] = Hydrogel material properties (oscillatory rheology, gelation); assay type: physicochemical
Description: Rheology measurements were performed on an AR G2 rheometer (TA instruments) with a 20 mm stainless steel parallel plate geometry. […] Dynamic time sweep experiments (DTS) were performed to monitor the storage (G′) and loss (G″) modulus as a function of time (6 rad/s frequency, 0.2% strain) for 60 min. For shear-thinning experiments, the samples were subjected to 500 s^−1 steady-state shear for 60 s after which oscillatory measurement was performed at 6 rad/s frequency, 0.2% strain. Subsequently, recovery of the storage (G′) and loss (G″) modulus as a function of time was monitored for 30 min. Dynamic frequency (0.1-100 rad/s frequency, 1.0% strain) sweep experiments were performed to establish the frequency response of the samples. All measurements were performed in triplicates.

[5] = test system: primary cerebellar granule precursors (CGPs); assay: RealTime-Glo cell viability of primary cerebellar granule precursor cells encapsulated in MAX8; assay type: cell-based, C57BL/6 mice; settings: 0.5 wt % MAX8, RealTime-Glo, FIG. 2B
Description: as §1
In general and unless otherwise indicated, MAX8-cell constructs were prepared as 0.25 wt % MAX8 hydrogels. First, the peptide was dissolved in 50 mM HEPES buffer (pH 7.4) ([…] of hydrogel) and then an equal volume of single cell suspension in DMEM was added and gently mixed. […]
Unless noted otherwise, cell viability assays were performed in 384-well plates using the RealTime-Glo™ MT Cell Viability Assay from Promega. […] The cells were allowed to equilibrate for 24 hours before any luminescence was determined. […] The plate was incubated for 60 minutes at 37 C and the luminescence was measured using an Envision Multilevel Reader (Perkin Elmer).

[6] = 0.5 wt % hydrogel, RealTime-Glo, FIG. 2C

Compound: C[S+](C)[O-] [DMSO, dimethyl sulfoxide]
DMSO concentration at which medulloblastoma cells were viable [1]: up to 1%

Compound: CS(=O)(=O)c1ccc(C(=O)Nc2ccc(Cl)c(-c3ccccn3)c2)c(Cl)c1 [vismodegib]
sensitivity (dose response of cell viability), monolayers vs hydrogel cultures [2]: shift in dose response curves between monolayers and hydrogel cultures

Compound: IKVAVVKVKVKVK-(V^DPPT)-KVEVKVKV-NH2 [MAX8-IKVAV]
proliferation of medulloblastoma cells when compared to MAX8 [3, 6]: increased the proliferation

Compound: RGDSVKVKVKVK-(V^DPPT)-KVEVKVKV-NH2 [MAX8-RGDS]
proliferation of medulloblastoma cells encapsulated in cell constructs, over native MAX8 [3, 6]: 1.4 fold

stiffness of the hydrogel ([4]; controllable by weight percent of the peptide): around 1000 Pa | gelation time ([4]; room temperature, physiological salt concentration and pH): gelates within a minute
Compound: VKVKVKVK-(V^DPPT)-KVEVKVKV-NH2 [MAX8]
viability of medulloblastoma cells within MAX8-cell constructs ([3]; 0.25 or 0.5 wt % MAX8, RealTime-Glo, FIG. 2A): viable for several days | cell proliferation as a function of MAX8 concentration ([3]; 0.25 vs 0.5 wt % MAX8, FIG. 2A): cell proliferation decreased with increasing MAX8 concentrations | viability of primary CGPs within MAX8-cell constructs [5]: viable for several days

Compound: YIGSRVKVKVKVK-(V^DPPT)-KVEVKVKV-NH2 [MAX8-YIGSR]
proliferation of medulloblastoma cells when compared to MAX8 [3, 6]: increased the proliferation
